Assay results as given in patent US20150141523A1, “COMPOUNDS FOR USE IN THE TREATMENT OF AUTOIMMUNE INFLAMMATORY DISEASE” (Venantius Limited, priority 2012, published 2015).

Key:
[1] = tested on: IL-2 secretion from Jurkat T cells; experiment: IL-2 secretion from activated Jurkat T cells (ELISA); type: cell-based, human; details: for IL-2 [ ]pg/ml (1) / IL-2 % Control (1): experiment (1); for IL-2 % Control (1) / IL-2 % Control (2) / IL-2 % Control (3): relative to DMSO 0.1%; for IL-2 [ ]pg/ml (2) / IL-2 % Control (2): experiment (2); for IL-2 [ ]pg/ml (3) / IL-2 % Control (3): experiment (3)
Procedure: The T cell line Jurkat 6.1 (ATCC) was used. Cells were pre-treated for 30 min with 1 μM or 10 μM of the respective compound and then stimulated with plate-bound anti-CD3 (BD Pharmingen) and anti-CD28 (AnCell). DMSO was used as vehicle control. The immunosuppressive agent Cyclosporine A was used as a control for inhibition of IL-2 production. After 24 hs the supernatant was collected and IL-2 secretion was measured by ELISA.
Jurkat T cells were cultured in RMPI-1640 medium containing 10 % Foetal Bovine Serum, Penicillin/Streptomycin and L-Glutamine in T-75cm2 flasks at 37° C. and 5 % CO2. Cells were seeded into new culture flasks at a density of 1-3×10^5 cells per ml and maintained at a density of 0.5−1×10^6 cells per ml.
(§1) (A) Anti-TCR/CD28-mediated activation of Jurkat cells: Experiments involving anti-TCR/CD28-mediated activation of Jurkat T lymphocytes were carried out on 24-well cell culture plates. The plates were coated with a 1/100 dilution of rabbit anti-mouse IgG in sterile PBS (1×) and incubated overnight at 4OC. Unbound antibody was aspirated and the wells were gently rinsed with warm sterile PBS. The PBS was aspirated and the wells were coated with a 1/100 dilution of anti-TCR antibody (OKT-3) and a 1/200 dilution of anti-CD28 antibody (both antibodies pre-mixed prior to addition to the plates) in sterile PBS. The plates were then incubated for 1-2 hours at 37° C. Unbound antibody was aspirated and the wells were gently rinsed with warm PBS. The PBS was left on the plate until the Jurkat cells were ready to be added to the plate. The Jurkat cells were harvested from the T-75cm2 cell culture flasks and resuspended at a density of 0.5×10^6 cells per ml. The compounds were dissolved at a specified stock concentration (see results section) and diluted to the required concentration by adding the drug to the cell suspension. The cells were then pre-incubated with the compounds or with an equivalent volume of drug vehicle control (DMSO) for 30 minutes prior to adding the cell suspension to the antibody-coated plates. Cyclosporine A (1 μM) was used as a positive control to inhibit IL-2 production from activated T cells and was preincubated with the 6 cells as described above in parallel. The cells were then incubated on the plates with the acti-TCR/CD28 antibodies for 24 hours at 37° C. and 5% CO2 in a humidified atmosphere. After 24 hours, the cell suspension was removed from the plates and the cells were pelleted by centrifugation. The cell culture supernatant was saved and analysed for secreted IL-2 by ELISA. The cell pellet was saved and cell viability was measured using Acridine Orange/Ethidium Bromide cell viability staining solution.
(B) PHA/PMA-mediated activation of Jurkat cells Jurkat cells were resuspended at a concentration of 0.5×10^6 cells per ml and the Pharmatrin compounds at the desired concentration or an equivalent volume of drug vehicle control (DMSO) were added to the cells and incubated for 30 minutes. Cyclosporine A (1 ∝M) was used as a positive control to inhibit IL-2 production from activated T cells and was preincubated with the cells as described above in parallel. PHA and PMA were added to the cell suspension (10 ∝g/ml and 10 ng/ml respectively) and the cells were plated onto uncoated 24-well plates. The cells were incubated on the plates for 24 hours at 37° C. and 5 % CO2 in a humidified atmosphere. After 24 hours, the cell suspension was removed from the plates and the cells were pelleted by centrifugation. The cell culture supernatant was saved and analysed for secreted IL-2 by ELISA.
The cell culture supernatants were analysed for IL-2 by ELISA (96-well plate format) using the Human IL-2 ELISA kit from R&D Systems Europe. This assay was carried out using the standard protocol outlined by the company. Samples and standards (recombinant human IL-2 provided by R&D Systems) were analysed in triplicate. […]

Balb/C mice = experiment: 5% DSS-induced murine colitis model; type: in vivo, mouse; details: for inhibition of DAI in DSS-induced colitis: 5% DSS colitis (FIG. 9); for effect on DSS-induced weight loss: 5% DSS colitis, 30 mg/kg p.o. (FIG. 8)
Jurkat cells = experiment: Jurkat cell viability (Acridine Orange/Ethidium Bromide); type: cell-based
Procedure: as §1
The cell pellet was resuspended in 20 μl of Acridine Orange/Ethidium Bromide staining solution. A portion of this cell suspension was placed on a haemocytometer and analysed under a fluorescence microscope. […] The ratio of viable cells: non-viable cells were calculated for each activation time point/drug treatment.

| Compound | IL-2 [ ]pg/ml (1) ([1]; 0.3 uM) [pg/mL] | IL-2 % Control (1) ([1]; 0.3 uM) [%] | IL-2 [ ]pg/ml (2) ([1]; 0.3 uM) [pg/mL] | IL-2 % Control (2) ([1]; 0.3 uM) [%] | IL-2 [ ]pg/ml (3) ([1]; 0.3 uM) [pg/mL] | IL-2 % Control (3) ([1]; 0.3 uM) [%] | IL-2 [ ]pg/ml (1) ([1]; 1 uM) [pg/mL] | IL-2 % Control (1) ([1]; 1 uM) [%] | IL-2 [ ]pg/ml (2) ([1]; 1 uM) [pg/mL] | IL-2 % Control (2) ([1]; 1 uM) [%] | IL-2 [ ]pg/ml (3) ([1]; 1 uM) [pg/mL] | IL-2 % Control (3) ([1]; 1 uM) [%] | IL-2 [ ]pg/ml (1) ([1]; 3 uM) [pg/mL] | IL-2 % Control (1) ([1]; 3 uM) [%] | IL-2 [ ]pg/ml (2) ([1]; 3 uM) [pg/mL] | IL-2 % Control (2) ([1]; 3 uM) [%] | IL-2 [ ]pg/ml (3) ([1]; 3 uM) [pg/mL] | IL-2 % Control (3) ([1]; 3 uM) [%] | IL-2 [ ]pg/ml (1) ([1]; 10 uM) [pg/mL] | IL-2 % Control (1) ([1]; 10 uM) [%] | further results |
| --- | --- | --- | --- | --- | --- | --- | --- | --- | --- | --- | --- | --- | --- | --- | --- | --- | --- | --- | --- | --- | --- |
| O[C@H]1c2ccccc2C[C@]1(Cc1ccccc1)C1=Cc2ccccc2C1 (single isomer, unassigned) [Compound 9] | 111.72 | 152.99 | 73.45 | 112.48 | 139.63 | 106.13 | 120.56 | 165.09 | 65.45 | 100.23 | 114.13 | 86.75 | 78.78 | 107.88 | 81.75 | 59.11 | 53.47 | 40.64 | 37.72 | 51.66 | IL-2 [ ]pg/ml (2) ([1]; 10 uM): 85.60 pg/mL; IL-2 % Control (2) ([1]; 10 uM): 131.09%; IL-2 [ ]pg/ml (3) ([1]; 10 uM): 36.16 pg/mL; IL-2 % Control (3) ([1]; 10 uM): 27.48%; IL-2 [ ]pg/ml (1) ([1]; 30 uM): -4.56 pg/mL; IL-2 % Control (1) ([1]; 30 uM): −6.24%; IL-2 [ ]pg/ml (2) ([1]; 30 uM): 16.35 pg/mL; IL-2 % Control (2) ([1]; 30 uM): 25.04%; IL-2 [ ]pg/ml (3) ([1]; 30 uM): -3.88 pg/mL; IL-2 % Control (3) ([1]; 30 uM): −2.95%; IL-2 [ ]pg/ml (1) ([1]; 100 uM): -3.72 pg/mL; IL-2 % Control (1) ([1]; 100 uM): −5.10%; IL-2 [ ]pg/ml (2) ([1]; 100 uM): -5.75 pg/mL; IL-2 % Control (2) ([1]; 100 uM): −8.81%; IL-2 [ ]pg/ml (3) ([1]; 100 uM): -5.28 pg/mL; IL-2 % Control (3) ([1]; 100 uM): −4.01%; inhibition of DAI in DSS-induced colitis (Balb/C mice): only the S,S-enantiomer 10 caused a significant; effect on DSS-induced weight loss (Balb/C mice): not |
| (R,S or SR)2-Benzyl-2,3-dihydro-1H,1′H-2,2′-biinden-1-ol [Compound 7] | 44.65 | 218.87 | 93.65 | 143.42 | 112.94 | 85.85 | 49.20 | 241.18 | 71.40 | 109.34 | 109.59 | 83.31 | 43.25 | 212.01 | 45.10 | 69.07 | 97.25 | 73.92 | 24.75 | 121.32 | IL2 release from Jurkat cells [1]: inhibited IL2 release; IL-2 [ ]pg/ml (2) ([1]; 10 uM): 36.75 pg/mL; IL-2 % Control (2) ([1]; 10 uM): 56.28%; IL-2 [ ]pg/ml (3) ([1]; 10 uM): 81.84 pg/mL; IL-2 % Control (3) ([1]; 10 uM): 62.21%; IL-2 [ ]pg/ml (1) ([1]; 30 uM): 10.10 pg/mL; IL-2 % Control (1) ([1]; 30 uM): 49.51%; IL-2 [ ]pg/ml (2) ([1]; 30 uM): 27.80 pg/mL; IL-2 % Control (2) ([1]; 30 uM): 42.57%; IL-2 [ ]pg/ml (3) ([1]; 30 uM): 32.00 pg/mL; IL-2 % Control (3) ([1]; 30 uM): 24.32%; IL-2 [ ]pg/ml (1) ([1]; 100 uM): 1.15 pg/mL; IL-2 % Control (1) ([1]; 100 uM): 5.64%; IL-2 [ ]pg/ml (2) ([1]; 100 uM): -19.30 pg/mL; IL-2 % Control (2) ([1]; 100 uM): −29.56%; IL-2 [ ]pg/ml (3) ([1]; 100 uM): -3.13 pg/mL; IL-2 % Control (3) ([1]; 100 uM): −2.38%; cell viability (Jurkat cells): without affecting cell viability |
| O[C@@H]1c2ccccc2C[C@@]1(Cc1ccccc1)C1=Cc2ccccc2C1 (single isomer, unassigned) [Compound 10] | 79.17 | 108.41 | 88.15 | 134.99 | 58.63 | 44.56 | 64.17 | 87.87 | 57.50 | 88.06 | 104.44 | 79.39 | 71.39 | 97.76 | 54.15 | 82.92 | 100.50 | 76.39 | 42.50 | 58.20 | IL-2 [ ]pg/ml (2) ([1]; 10 uM): 45.60 pg/mL; IL-2 % Control (2) ([1]; 10 uM): 69.83%; IL-2 [ ]pg/ml (3) ([1]; 10 uM): 80.25 pg/mL; IL-2 % Control (3) ([1]; 10 uM): 61.00%; IL-2 [ ]pg/ml (1) ([1]; 30 uM): 14.17 pg/mL; IL-2 % Control (1) ([1]; 30 uM): 19.40%; IL-2 [ ]pg/ml (2) ([1]; 30 uM): 56.70 pg/mL; IL-2 % Control (2) ([1]; 30 uM): 86.83%; IL-2 [ ]pg/ml (3) ([1]; 30 uM): 46.06 pg/mL; IL-2 % Control (3) ([1]; 30 uM): 35.01%; IL-2 [ ]pg/ml (1) ([1]; 100 uM): -11.33 pg/mL; IL-2 % Control (1) ([1]; 100 uM): −15.52%; IL-2 [ ]pg/ml (2) ([1]; 100 uM): -6.30 pg/mL; IL-2 % Control (2) ([1]; 100 uM): −9.65%; IL-2 [ ]pg/ml (3) ([1]; 100 uM): -0.78 pg/mL; IL-2 % Control (3) ([1]; 100 uM): −0.59%; inhibition of DAI in DSS-induced colitis (Balb/C mice): significant (P<0.0059) inhibition; effect on DSS-induced weight loss (Balb/C mice): ameliorated; disease activity index (DAI) (Balb/C mice; day 7, mean±SEM, vehicle control 6.833±1.276): 2.333±0.211 |
